pIC50: −log10 of the molar value.
How the values were obtained:
[1] = test system: ovalbumin sensitized mice (BALB/c-strain); test: Asthma evaluations (ovalbumin sensitized mice); type: in vivo; settings: 200 μg i.p. at days 7, 9 and 11
Experimental: By application of ovalbumin together with aluminium hydroxide an immune response to ovalbumin is provoked. The immune response may be traced using the immigrated T-helper cell population (CD4+) and the immigrated eosinophilic granulocytes. Female mice (BALB/c-strain) were sensitized by intraperitoneal (i.p.) application of 50 μg ovalbumin solved in phosphate buffer (PBS) ((OVA) plus 100 μl aluminium hydroxide) with a total volume of 200 μl per mouse on day 0. 100 μg OVA in PBS (50 μl total volume) was intranasal administered to the ovalbumin sensitized mice under mild anesthesia (isoflurane) at days 7-10. These animals were divided into groups which obtained in addition either 200 μg test compound in PBS (i.p.), only PBS (diluent) or no further additive (−) at days 7, 9 and 11. At day 12 all animals were sacrificed by CO2 exposition and cells of the bronchial tract were obtained by bronchial lavage (BAL) with threefold washing with 1 ml of cold PBS each using a cannula introduced into the trachea. The cells obtained by BAL were then stained twice (a) with Cy-chrome conjugated anti-mouse CD4 antibodies and (b) with FITC conjugated anti-mouse CD62L antibodies. Subsequently, the cells were analyzed by FACS. Effector/memory CD4^+ T-cells were differentiated as CD4^+/CD62L^− lymphocytes and eosinophilic cells using their stray light characteristics (FSC/CCS).

[2] = Determination of cell permeability in PAMPA cell membranes (Parallel Artificial Membrane Permeability Assay); type: in vitro ADME; settings: 500 μM, Hepes buffer pH 7.4, 16 hours, room temperature
Experimental: After an incubation of 16 hours at room temperature in a liquid chamber the optical density of the solution after filtration has been measured in a range of 250 to 500 nm in steps of 10 nm each. The percentage “Flux” has been calculated from the integral of the graph between 250 and 500 nm and standardized on the optical density determined in the parallel reaction without artificial membrane.

NFAT = test: Cellular NFAT-reporter-gene assay (GloResponse NFAT-RE-luc2P HEK293); type: cell-based; settings: Homo sapiens, HEK293, 16 h, read-out: NFAT-reporter-gene assay IC50
Text: An antigen specific stimulation of the T-cell receptor causes the activation of transcription factors such as e.g. NFAT (nuclear factor of activated T cells). NFAT-activation is essential for the expression of interleukine-2 and therefore, for the proliferation of T-cells as part of the immune response. A stable NFAT-reporter-gene cell line enables the analysis of modulators of the NFAT-pathways and thus, the evaluation of the immunosuppressive effects of compounds.
The stably transfected reporter-gene cell line GloResponse NFAT-RE-luc2P HEK293 (promega Corp. USA) was cultivated in DMEM (10% FCS; 2 mM Glutamin; 200 μg/ml Hygromycin) and seeded on 96-well plates (200.000 cells/well). The compounds to be tested were either added to the cells in a 2-point-determination (5 μM and 10 μM) or an ICH-determination (concentration series 4.1 nM-1 μM). […] Immediately thereafter the cells were stimulated with 5 nM PMA and 2 μM ionomycin and incubated over 16 h (37° C.; cell incubator). This double stimulation simulates a T-cell receptor stimulation and causes a NFAT activation with subsequently expression of the luciferase-reporter-gene. The amount of luciferase was quantitatively determined after 16 h by measurement of the bioluminescence by Bright-Glo Luciferase-Assay-System (Promega Corp., USA). The averaged luciferase values of the vehicle treated (1% DMSO) and with PMA/ionomycin stimulated cells were used as positive control and reference value.

Jurkat cells = test: Determination of cell permeability in Jurkat cells (displacement of fluorescent CsA derivative, FACS); type: cell-based; settings: FIG. 1; in comparison to CsA
Experimental: Jurkat cells of the cell culture have been harvested and centrifuged. The medium has been discarded and the cells were washed once with RPM′ (without phenol red, 10% FCS, Hepes, gentamicin). The cells were re-suspended in a medium adjusted to a cell concentration of 1.0×10^5-3.0×10^5 cells/ml and subsequently incubated with a fluorescent CsA derivative (0.5 μM-2.0 μM) at 37° C., 5-10% CO2 and 100% humidity. The cells were then centrifuged, the medium discarded and the cell pellet was washed once with medium and the cells were resuspended in a new medium. Subsequently, the cells were incubated for a half hour to 4 hours with the corresponding concentration (0.01 μM to 100 μM) of the test compound to be analyzed and then centrifuged again. The medium was discarded; it was once washed with 1 ml PBS and suspended in 500 μl PBS. The analysis was carried out using FACS-measurement by quantification of the replaced fluorescent CsA-derivative. The reference (without inhibitor) was thereby set 100%.

in vitro = settings: human, Caco-2, pH 7.4
calcineurin = calcineurin (Homo sapiens, UniProt P62937+P63098+Q08209); test: Inhibition of the phosphatase activity of calcineurin (scintillation-proximity-assay, in presence of Cyp18);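 note: calcineurin dephosphorylation of a ³³P-labelled RII phosphopeptide, captured on streptavidin-coated wells and read by scintillation counting, with uninhibited enzyme activity taken as 100%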
Experimental: The measurement was carried out by incubation of 10 μMol of the biotinylated phosphopeptide [sequence]pSer-Val-Ala-Ala-Glu (MW=2192.0) (RH-peptide) marked with ^33P in a sample buffer (40 mM Tris-HCl, pH 7.5, 100 mM NaCl, 6 mM MgCl2, 0.5 mM dithiothreitol, 1 mM. CaCl2, 0.1 mg/ml bovine serum albumin) in presence of 50 nM calmodulin and 1.32 nM calcineurin at 30° C. for 20 min in a 96 well micro titer plate (Costar, Bodenheim, Germany). The total volume of the assay/well was 100 μl. After this reaction time a 90 μl aliquot of the reaction mixture was transferred into a scintillation cavity coated with streptavidin and incubated for 20 min at 22° C. After a washing step the RII phosphopeptide-associated ^33P radioactivity was measured in a MicroBeta Top Counter (Wallac) and the enzyme activity was indicated as average value of three measurements±S.D. The uninhibited dephosphorylation activity has been set on 100%.

[3] = molecular target: recombinant human wild type Cyp18 (Cyp18 wt) (Homo sapiens, UniProt P62937); test: biochemical
Chain of recombinant human wild type Cyp18 (Cyp18 wt) (P62937 whole entry): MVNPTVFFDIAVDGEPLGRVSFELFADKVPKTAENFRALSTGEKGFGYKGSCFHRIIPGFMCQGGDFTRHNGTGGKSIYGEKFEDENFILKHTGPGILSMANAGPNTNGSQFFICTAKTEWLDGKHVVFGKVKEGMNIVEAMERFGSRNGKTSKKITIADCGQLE
Experimental: The determination was performed on a UV/Vis spectrometer at 10° C. cuvette temperature, whereby the device is operated at 390 nm in kinetic-mode (measurement buffer: 35 mM HEPES/NaOH pH 7.8 (AppliChem A1069)). 0.58 nM recombinant human wild type Cyp18 (Cyp18 wt), 2.33 nM bovine serum albumin (BSA) and 1 mg/ml chymotrypsin (Merck) solved in 35 mM HEPES/NaOH pH 7.8 as well as different concentration of each test substance, where appropriate, were in the cuvette. The reaction was started with a stock solution of Suc-Ala-Ala-Pro-Phe-4-nitroanilide (Bachem, 10 mg/ml DMSO) as substrate so that a final substrate concentration of 32 μM resulted. The extinction-time-curves were evaluated after expiry of the fast phase of the reaction i.e. after approximately 60 seconds according to a rate equation of a first-order reaction.

**Q.** For `CC[C@@H]1NC(=O)[C@H]([C@H](O)[C@H](C)Cc2nc3ccc(C(=O)O)cc3[nH]2)N(C)C(=O)[C@H](C(C)C)N(C)C(=O)[C@H](CC(C)C)N(C)C(=O)[C@H](CC(C)C)N(C)C(=O)[C@@H](C)NC(=O)[C@H](C)NC(=O)[C@H](CC(C)C)N(C)C(=O)[C@H](C(C)C)NC(=O)[C@H](CC(C)C)N(C)C(=O)CN(C)C1=O` [Compound 5], which “Number of eosinophilic granulocytes (eosinophils) in bronchial lavage” value ([1]; FIG. 3) is on record?
**A.** The value was “reduced very significantly”.

**Q.** And the “Number of eosinophilic granulocytes (eosinophils) in lung tissue” value ([1]; FIG. 4)?
**A.** Its value is “reduced very significantly”.

**Q.** What about the “Number of CD4 positive T-cells in bronchial lavage (BAL)” value ([1]; FIG. 5) of the same compound?
**A.** Its value is “reduced very significantly”.

**Q.** And the “Number of CD4 positive T-cells in the lung tissue” value ([1]; FIG. 6)?
**A.** Its value is “reduced very significantly”.

**Q.** And the “Cell permeability in PAMPA-cell membranes” value [2]?
**A.** The value was 1.7 % flux.

**Q.** What about the pIC50 (NFAT) of the same compound?
**A.** The pIC50 was < 5.00.

**Q.** And the “Cell permeability in Jurkat cells” value (Jurkat cells)?
**A.** The value was “not cell permeable”.

**Q.** And the Papp A→B at 2 h, 5 μM (in vitro)?
**A.** The Papp A→B at 2 h, 5 μM was 0.17 ×10⁻⁶ cm/s.

**Q.** And the Papp B→A at 2 h, 5 μM (in vitro)?
**A.** The Papp B→A at 2 h, 5 μM was 0.13 ×10⁻⁶ cm/s.

**Q.** And the pIC50 (calcineurin)?
**A.** The pIC50 was < 5.00.

**Q.** With `CC[C@@H]1NC(=O)[C@H]([C@H](O)[C@H](C)Cc2nc3cc(S(=O)(=O)O)ccc3[nH]2)N(C)C(=O)[C@H](C(C)C)N(C)C(=O)[C@H](CC(C)C)N(C)C(=O)[C@H](CC(C)C)N(C)C(=O)[C@@H](C)NC(=O)[C@H](C)NC(=O)[C@H](CC(C)C)N(C)C(=O)[C@H](C(C)C)NC(=O)[C@H](CC(C)C)N(C)C(=O)CN(C)C1=O` [Compound 22] as the compound, how does the “Cell permeability in PAMPA-cell membranes” value [2] read?
**A.** Its value is 4.1 % flux.

**Q.** What about the pIC50 (NFAT) of the same compound?
**A.** The pIC50 was < 5.00.

**Q.** What about the pIC50 [3] of the same compound?
**A.** The pIC50 was 8.06.

**Q.** And the Papp A→B at 2 h, 5 μM (in vitro)?
**A.** Its Papp A→B at 2 h, 5 μM is 0.9 ×10⁻⁶ cm/s.

**Q.** What about the pIC50 (calcineurin) of the same compound?
**A.** The pIC50 was < 5.00.

**Q.** For `CC[C@@H]1NC(=O)[C@H]([C@H](O)[C@H](C)Cc2nc3cc(S(N)(=O)=O)ccc3[nH]2)N(C)C(=O)[C@H](C(C)C)N(C)C(=O)[C@H](CC(C)C)N(C)C(=O)[C@H](CC(C)C)N(C)C(=O)[C@@H](C)NC(=O)[C@H](C)NC(=O)[C@H](CC(C)C)N(C)C(=O)[C@H](C(C)C)NC(=O)[C@H](CC(C)C)N(C)C(=O)CN(C)C1=O` [Compound 34], which “Cell permeability in PAMPA-cell membranes” value [2] is on record?
**A.** The value was 19.9 % flux.

**Q.** What about the pIC50 (NFAT) of the same compound?
**A.** Its pIC50 is < 5.00.

**Q.** And the pIC50 [3]?
**A.** Its pIC50 is 7.79.

**Q.** What about the Papp A→B at 2 h, 5 μM (in vitro) of the same compound?
**A.** The Papp A→B at 2 h, 5 μM was < 0.6 ×10⁻⁶ cm/s.

**Q.** What about the Papp B→A at 2 h, 5 μM (in vitro) of the same compound?
**A.** Its Papp B→A at 2 h, 5 μM is 0.87 ×10⁻⁶ cm/s.

**Q.** What about the pIC50 (calcineurin) of the same compound?
**A.** Its pIC50 is 5.19.

**Q.** With `CC[C@@H]1NC(=O)[C@H]([C@H](O)[C@H](C)Cc2nc3cc(C(=N)N)ccc3[nH]2)N(C)C(=O)[C@H](C(C)C)N(C)C(=O)[C@H](CC(C)C)N(C)C(=O)[C@H](CC(C)C)N(C)C(=O)[C@@H](C)NC(=O)[C@H](C)NC(=O)[C@H](CC(C)C)N(C)C(=O)[C@H](C(C)C)NC(=O)[C@H](CC(C)C)N(C)C(=O)CN(C)C1=O` [Compound 35] as the compound, how does the “Cell permeability in PAMPA-cell membranes” value [2] read?
**A.** Its value is 4 % flux.

**Q.** What about the pIC50 (NFAT) of the same compound?
**A.** Its pIC50 is < 5.00.

**Q.** And the pIC50 [3]?
**A.** The pIC50 was 7.92.

**Q.** And the Papp A→B at 2 h, 5 μM (in vitro)?
**A.** Its Papp A→B at 2 h, 5 μM is < 0.35 ×10⁻⁶ cm/s.

**Q.** What about the Papp B→A at 2 h, 5 μM (in vitro) of the same compound?
**A.** Its Papp B→A at 2 h, 5 μM is < 0.46 ×10⁻⁶ cm/s.

**Q.** What about the pIC50 (calcineurin) of the same compound?
**A.** Its pIC50 is 5.32.

**Q.** For `CC[C@@H]1NC(=O)[C@H]([C@H](O)[C@H](C)Cc2nc3cc(NC(=N)N)ccc3[nH]2)N(C)C(=O)[C@H](C(C)C)N(C)C(=O)[C@H](CC(C)C)N(C)C(=O)[C@H](CC(C)C)N(C)C(=O)[C@@H](C)NC(=O)[C@H](C)NC(=O)[C@H](CC(C)C)N(C)C(=O)[C@H](C(C)C)NC(=O)[C@H](CC(C)C)N(C)C(=O)CN(C)C1=O` [Compound 46], which “Cell permeability in PAMPA-cell membranes” value [2] is on record?
**A.** Its value is 13.5 % flux.

**Q.** And the pIC50 (NFAT)?
**A.** Its pIC50 is < 5.00.

**Q.** What about the pIC50 [3] of the same compound?
**A.** Its pIC50 is 7.88.

**Q.** What about the Papp A→B at 2 h, 5 μM (in vitro) of the same compound?
**A.** The Papp A→B at 2 h, 5 μM was 0.4 ×10⁻⁶ cm/s.

**Q.** What about the pIC50 (calcineurin) of the same compound?
**A.** The pIC50 was 5.18.
